Experimental data: ChEMBL document CHEMBL4219210, “Discovery and biological evaluation of novel pyrazolopyridine derivatives as potent and orally available PI3Kδ inhibitors” (Bioorg Med Chem, 2018)
Values belong to the compound of their own block, whether it stands above or below them.

Key:
[1] = species on record: Homo sapiens; assay: Selectivity ratio of IC50 for recombinant human N-terminal His6-tagged full length PI3K p110alpha/untagged recombinant full length human p85alpha to IC50 for recombinant human full length N-terminal His6-tagged PI3K p110delta/untagged recombinant full length human p85alpha expressed in baculovirus infected Sf21 insect cells
[2] = target: PI3-kinase p110-delta/p85-alpha (Homo sapiens, UniProt O00329); assay: Inhibition of recombinant human full length N-terminal His6-tagged PI3K p110delta/untagged recombinant full length human p85alpha expressed in baculovirus infected Sf21 insect cells using PIP2 as substrate after 35 to 40 mins by HTRF assay
Chain of PI3-kinase p110-delta/p85-alpha (P27986 whole entry): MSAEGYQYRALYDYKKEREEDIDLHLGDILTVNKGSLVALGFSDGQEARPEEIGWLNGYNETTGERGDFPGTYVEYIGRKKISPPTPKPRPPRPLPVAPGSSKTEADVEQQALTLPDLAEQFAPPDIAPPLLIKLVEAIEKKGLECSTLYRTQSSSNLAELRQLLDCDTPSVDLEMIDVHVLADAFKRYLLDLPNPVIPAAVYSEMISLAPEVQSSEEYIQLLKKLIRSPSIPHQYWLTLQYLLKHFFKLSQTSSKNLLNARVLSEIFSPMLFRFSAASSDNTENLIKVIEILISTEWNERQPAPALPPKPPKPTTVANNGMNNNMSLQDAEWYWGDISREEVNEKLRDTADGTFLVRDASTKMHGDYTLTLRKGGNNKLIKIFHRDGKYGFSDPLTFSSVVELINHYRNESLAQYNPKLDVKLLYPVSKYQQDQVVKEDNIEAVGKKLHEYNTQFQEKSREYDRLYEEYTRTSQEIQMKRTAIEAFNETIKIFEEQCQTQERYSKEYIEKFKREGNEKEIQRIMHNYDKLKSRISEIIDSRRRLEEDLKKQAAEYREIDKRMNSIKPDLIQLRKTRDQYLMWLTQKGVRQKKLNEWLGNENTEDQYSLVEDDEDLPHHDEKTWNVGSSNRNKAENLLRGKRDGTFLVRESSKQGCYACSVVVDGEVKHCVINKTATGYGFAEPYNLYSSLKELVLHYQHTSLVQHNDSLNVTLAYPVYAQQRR
Chain of PI3-kinase p110-delta/p85-alpha (O00329 whole entry): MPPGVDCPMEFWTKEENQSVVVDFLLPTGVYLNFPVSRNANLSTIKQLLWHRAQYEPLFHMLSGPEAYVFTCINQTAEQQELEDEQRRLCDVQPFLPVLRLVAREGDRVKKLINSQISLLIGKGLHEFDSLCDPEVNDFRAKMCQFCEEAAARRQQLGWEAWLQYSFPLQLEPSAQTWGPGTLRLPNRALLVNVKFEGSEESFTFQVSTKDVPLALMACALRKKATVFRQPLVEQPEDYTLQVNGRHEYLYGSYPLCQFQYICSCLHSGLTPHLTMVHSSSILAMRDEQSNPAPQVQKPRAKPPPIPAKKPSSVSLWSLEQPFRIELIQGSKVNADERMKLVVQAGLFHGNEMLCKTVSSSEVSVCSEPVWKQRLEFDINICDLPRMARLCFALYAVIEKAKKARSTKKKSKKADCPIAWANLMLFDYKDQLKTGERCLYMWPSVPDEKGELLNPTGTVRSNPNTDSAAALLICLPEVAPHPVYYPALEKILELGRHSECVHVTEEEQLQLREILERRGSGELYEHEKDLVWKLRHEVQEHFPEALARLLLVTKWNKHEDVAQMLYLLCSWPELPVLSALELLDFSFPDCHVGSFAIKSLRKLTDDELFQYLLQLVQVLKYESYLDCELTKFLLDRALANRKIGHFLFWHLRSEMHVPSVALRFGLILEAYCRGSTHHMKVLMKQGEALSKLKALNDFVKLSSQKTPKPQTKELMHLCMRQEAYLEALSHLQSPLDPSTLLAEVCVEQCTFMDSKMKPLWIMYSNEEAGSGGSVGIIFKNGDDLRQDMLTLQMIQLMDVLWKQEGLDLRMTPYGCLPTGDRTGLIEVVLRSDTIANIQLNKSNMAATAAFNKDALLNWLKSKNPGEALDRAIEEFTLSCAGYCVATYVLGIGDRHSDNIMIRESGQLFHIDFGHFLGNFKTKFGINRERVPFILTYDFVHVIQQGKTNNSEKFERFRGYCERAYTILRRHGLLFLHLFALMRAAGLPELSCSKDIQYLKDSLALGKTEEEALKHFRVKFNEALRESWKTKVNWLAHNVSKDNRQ

[3] = AUC in BALB/c mouse plasma at 3 mg/kg, po by LC-MS/MS analysis; format: ADME, organism-based
[4] = Cmax in BALB/c mouse plasma at 1 mg/kg, iv followed by po dosing at 3 mg/kg by LC-MS/MS analysis; format: ADME, organism-based
[5] = Tmax in BALB/c mouse plasma at 1 mg/kg, iv followed by po dosing at 3 mg/kg by LC-MS/MS analysis; format: ADME, organism-based
[6] = Half life in BALB/c mouse plasma at 1 mg/kg, iv followed by po dosing at 3 mg/kg by LC-MS/MS analysis; format: ADME, organism-based
[7] = Volume of distribution at steady state in BALB/c mouse plasma at 1 mg/kg, iv followed by po dosing at 3 mg/kg by LC-MS/MS analysis; format: ADME, organism-based; details: read-out: Vdss
[8] = Total clearance in BALB/c mouse plasma at 1 mg/kg, iv followed by po dosing at 3 mg/kg by LC-MS/MS analysis; format: ADME, organism-based
[9] = Stability in BALB/c mouse plasma assessed as parent compound remaining at 2 uM after 16 hrs in absence of NaF by LC-MS/MS analysis; format: ADME, cell-free; details: read-out: Stability
[10] = Oral bioavailability in BALB/c mouse plasma at 3 mg/kg by LC-MS/MS analysis; format: ADME, organism-based
[11] = target: PI3K p110 beta/p85 alpha (Homo sapiens, UniProt P42338); assay: Inhibition of recombinant human full length N-terminal His6-tagged PI3K p110beta/untagged recombinant full length human p85alpha expressed in baculovirus infected Sf21 insect cells using PIP2 as substrate after 35 to 40 mins by HTRF assay
Chain of PI3K p110 beta/p85 alpha (P27986 whole entry, canonical isoform): as the sequence (P27986 whole entry) above
Chain of PI3K p110 beta/p85 alpha (P42338 whole entry, canonical isoform): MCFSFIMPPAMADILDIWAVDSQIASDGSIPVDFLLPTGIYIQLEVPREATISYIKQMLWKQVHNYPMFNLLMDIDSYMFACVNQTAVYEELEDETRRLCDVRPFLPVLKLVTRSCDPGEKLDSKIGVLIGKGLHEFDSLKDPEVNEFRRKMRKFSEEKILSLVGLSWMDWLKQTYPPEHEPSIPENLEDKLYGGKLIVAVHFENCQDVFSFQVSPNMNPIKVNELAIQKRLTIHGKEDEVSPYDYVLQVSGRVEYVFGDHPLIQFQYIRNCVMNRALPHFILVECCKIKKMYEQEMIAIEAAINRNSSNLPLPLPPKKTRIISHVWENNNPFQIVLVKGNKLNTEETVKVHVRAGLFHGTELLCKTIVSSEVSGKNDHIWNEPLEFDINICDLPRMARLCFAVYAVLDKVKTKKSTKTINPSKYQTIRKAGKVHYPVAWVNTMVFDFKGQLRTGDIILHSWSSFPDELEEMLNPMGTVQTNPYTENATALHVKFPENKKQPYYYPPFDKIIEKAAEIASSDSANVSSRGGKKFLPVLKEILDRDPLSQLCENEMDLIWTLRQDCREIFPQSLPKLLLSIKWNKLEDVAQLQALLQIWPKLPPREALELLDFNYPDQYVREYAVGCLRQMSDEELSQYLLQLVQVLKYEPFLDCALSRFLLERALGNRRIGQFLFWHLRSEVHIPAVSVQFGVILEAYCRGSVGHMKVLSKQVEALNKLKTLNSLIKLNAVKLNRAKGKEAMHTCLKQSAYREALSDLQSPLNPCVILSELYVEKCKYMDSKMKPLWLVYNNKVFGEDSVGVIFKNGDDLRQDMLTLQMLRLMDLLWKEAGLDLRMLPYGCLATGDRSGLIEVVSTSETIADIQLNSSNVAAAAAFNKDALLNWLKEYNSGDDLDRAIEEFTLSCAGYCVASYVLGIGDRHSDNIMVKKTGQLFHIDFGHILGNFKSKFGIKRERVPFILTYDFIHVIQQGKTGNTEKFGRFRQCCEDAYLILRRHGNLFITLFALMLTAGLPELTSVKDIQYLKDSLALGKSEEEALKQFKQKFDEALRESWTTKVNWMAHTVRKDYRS

[12] = target: Phosphatidylinositol 4,5-bisphosphate 3-kinase catalytic subunit gamma isoform (Homo sapiens, UniProt P48736); assay: Inhibition of recombinant human full length N-terminal His-tagged PI3Kgamma expressed in Sf9 insect cells using PIP2 as substrate after 35 to 40 mins by HTRF assay
Chain of Phosphatidylinositol 4,5-bisphosphate 3-kinase catalytic subunit gamma isoform (P48736 whole entry, canonical isoform): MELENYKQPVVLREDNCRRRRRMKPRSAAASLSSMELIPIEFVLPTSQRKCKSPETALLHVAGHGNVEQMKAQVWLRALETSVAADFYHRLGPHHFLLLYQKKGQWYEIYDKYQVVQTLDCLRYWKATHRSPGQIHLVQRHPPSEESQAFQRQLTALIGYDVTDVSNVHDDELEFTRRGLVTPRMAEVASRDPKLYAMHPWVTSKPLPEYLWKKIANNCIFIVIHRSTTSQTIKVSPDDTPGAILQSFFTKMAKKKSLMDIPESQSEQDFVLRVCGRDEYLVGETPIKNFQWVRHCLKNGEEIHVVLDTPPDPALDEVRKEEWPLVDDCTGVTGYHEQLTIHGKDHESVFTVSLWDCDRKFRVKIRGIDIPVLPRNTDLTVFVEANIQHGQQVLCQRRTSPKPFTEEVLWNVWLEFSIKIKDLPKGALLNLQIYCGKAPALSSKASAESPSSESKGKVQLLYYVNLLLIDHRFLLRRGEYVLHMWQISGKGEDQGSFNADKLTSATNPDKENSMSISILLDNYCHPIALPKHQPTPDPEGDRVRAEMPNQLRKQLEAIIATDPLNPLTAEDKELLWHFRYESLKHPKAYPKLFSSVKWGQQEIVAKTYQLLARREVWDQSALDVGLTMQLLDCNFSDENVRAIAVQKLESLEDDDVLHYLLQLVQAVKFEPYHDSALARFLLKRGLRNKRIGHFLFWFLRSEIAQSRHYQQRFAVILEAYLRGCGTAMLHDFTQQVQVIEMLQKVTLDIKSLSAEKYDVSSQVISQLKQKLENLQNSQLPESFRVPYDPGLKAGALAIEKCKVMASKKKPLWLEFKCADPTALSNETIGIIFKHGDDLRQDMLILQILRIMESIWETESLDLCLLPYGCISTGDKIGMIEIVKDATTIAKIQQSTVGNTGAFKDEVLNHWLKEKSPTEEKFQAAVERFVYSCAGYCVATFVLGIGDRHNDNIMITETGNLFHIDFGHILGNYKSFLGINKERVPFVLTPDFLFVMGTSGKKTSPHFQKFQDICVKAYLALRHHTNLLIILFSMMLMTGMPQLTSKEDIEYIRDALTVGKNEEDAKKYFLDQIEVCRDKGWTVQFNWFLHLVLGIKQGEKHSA

[13] = Stability in BALB/c mouse plasma assessed as parent compound remaining at 2 uM after 16 hrs in presence of NaF by LC-MS/MS analysis; format: ADME, cell-free; details: read-out: Stability
[14] = target: PI3-kinase p110-alpha/p85-alpha (Homo sapiens, UniProt P42336); assay: Inhibition of recombinant human N-terminal His6-tagged full length PI3K p110alpha/untagged recombinant full length human p85alpha expressed in baculovirus infected Sf21 insect cells using phosphatidylinositol as substrate after 3 hrs by kinase glo reagent based luminescence assay
Chain of PI3-kinase p110-alpha/p85-alpha (P27986 whole entry): as the sequence (P27986 whole entry) above
Chain of PI3-kinase p110-alpha/p85-alpha (P42336 whole entry): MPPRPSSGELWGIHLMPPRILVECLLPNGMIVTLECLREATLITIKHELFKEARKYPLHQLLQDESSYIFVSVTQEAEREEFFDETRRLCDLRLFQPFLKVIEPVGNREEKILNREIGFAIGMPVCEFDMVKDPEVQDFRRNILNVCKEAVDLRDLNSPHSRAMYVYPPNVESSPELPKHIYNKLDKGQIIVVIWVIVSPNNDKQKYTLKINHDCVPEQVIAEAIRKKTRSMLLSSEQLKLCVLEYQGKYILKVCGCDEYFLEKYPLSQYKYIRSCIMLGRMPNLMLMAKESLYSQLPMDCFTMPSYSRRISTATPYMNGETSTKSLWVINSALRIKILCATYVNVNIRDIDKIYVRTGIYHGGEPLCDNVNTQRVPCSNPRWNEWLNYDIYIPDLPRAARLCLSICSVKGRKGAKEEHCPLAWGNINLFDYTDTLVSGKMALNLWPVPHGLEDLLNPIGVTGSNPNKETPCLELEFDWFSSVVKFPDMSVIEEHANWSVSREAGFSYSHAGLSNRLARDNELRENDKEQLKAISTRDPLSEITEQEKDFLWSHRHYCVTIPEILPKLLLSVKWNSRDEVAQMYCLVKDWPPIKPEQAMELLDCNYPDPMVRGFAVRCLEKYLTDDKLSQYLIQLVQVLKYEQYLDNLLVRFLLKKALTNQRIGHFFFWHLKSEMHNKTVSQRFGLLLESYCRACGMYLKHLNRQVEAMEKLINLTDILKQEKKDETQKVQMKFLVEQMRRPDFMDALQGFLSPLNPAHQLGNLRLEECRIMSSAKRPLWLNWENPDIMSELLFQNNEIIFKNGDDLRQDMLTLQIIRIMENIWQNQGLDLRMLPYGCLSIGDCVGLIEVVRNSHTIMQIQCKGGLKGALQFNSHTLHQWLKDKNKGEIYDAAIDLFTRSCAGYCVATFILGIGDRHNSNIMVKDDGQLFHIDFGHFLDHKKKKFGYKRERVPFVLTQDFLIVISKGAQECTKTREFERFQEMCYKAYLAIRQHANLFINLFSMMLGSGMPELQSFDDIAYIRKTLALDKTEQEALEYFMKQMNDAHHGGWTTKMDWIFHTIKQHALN

Structure (SMILES): COc1ncc(-c2cc(O[C@H]3CCN(C(=O)C4CCOCC4)C3)c3cnn(C)c3n2)cc1NS(C)(=O)=O
Ratio IC50 [1]: 13 | IC50 [2]: 53 nM

Structure (SMILES): COc1ncc(-c2cc(O[C@@H]3CCN(C4CCOCC4)C3)c3cnn(C)c3n2)cc1NS(C)(=O)=O
Ratio IC50 [1]: 21 | IC50 [2]: 52 nM

Structure (SMILES): COc1ncc(-c2cc(O[C@@H]3CCN(C(=O)C4(C)CCOCC4)C3)c3cnn(C)c3n2)cc1NS(C)(=O)=O
IC50 [2]: 18 nM

Structure (SMILES): COc1ncc(-c2cc(O[C@@H]3CCN(S(=O)(=O)C4CCOCC4)C3)c3cnn(C)c3n2)cc1NS(C)(=O)=O
Ratio IC50 [1]: 2 | IC50 [2]: 38 nM

Structure (SMILES): COc1ncc(-c2cc(N(C)[C@@H]3CCN(C(=O)C4CCOCC4)C3)c3cnn(C)c3n2)cc1NS(C)(=O)=O
IC50 [2]: 230 nM

Structure (SMILES): COc1ncc(-c2cc(O[C@@H]3CCN(C(=O)CC4CCOCC4)C3)c3cnn(C)c3n2)cc1NS(C)(=O)=O
Ratio IC50 [1]: 17 | IC50 [2]: 36 nM

Structure (SMILES): COc1ncc(-c2cc(O[C@@H]3CCN(C(=O)c4ccccc4)C3)c3cnn(C)c3n2)cc1NS(C)(=O)=O
Ratio IC50 [1]: 5.3 | IC50 [2]: 16 nM

Structure (SMILES): COc1ncc(-c2cc(O[C@@H]3CCN(CC4CCOCC4)C3)c3cnn(C)c3n2)cc1NS(C)(=O)=O
Ratio IC50 [1]: 29 | IC50 [2]: 18 nM

Structure (SMILES): COc1ncc(-c2cc(N[C@@H]3CCN(C(=O)C4CCOCC4)C3)c3cnn(C)c3n2)cc1NS(C)(=O)=O
Ratio IC50 [1]: 3.2 | IC50 [2]: 110 nM

Compounds with a lower IC50 [2], results first:

AUC [3]: 1640 ng·h/mL | Cmax [4]: 861 ng/mL | Tmax [5]: 15 min | half-life [6]: 151 min | Vd [7]: 2.37 L/kg | clearance [8]: 24.5 mL/min/kg | remaining at 16 h, 2 µM [9]: 109% | IC50 [2]: 5.3 nM | bioavailability [10]: 71.1%
Structure (SMILES): COc1ncc(-c2cc(O[C@@H]3CCN(C(=O)C4CCOCC4)C3)c3cnn(C)c3n2)cc1NS(C)(=O)=O
Ratio IC50 [1]: 92

IC50 [11]: 520 nM | AUC [3]: 346 ng·h/mL | Cmax [4]: 298 ng/mL | Tmax [5]: 15 min | half-life [6]: 84.6 min | Vd [7]: 2.82 L/kg | clearance [8]: 68.3 mL/min/kg | IC50 [2]: 4.5 nM | bioavailability [10]: 49% | IC50 [12]: > 10000 nM
Structure (SMILES): COc1ncc(-c2cc(O[C@@H]3CCN(Cc4c(C)nn(C)c4C)C3)c3cnn(C)c3n2)cc1NS(C)(=O)=O
Ratio IC50 [1]: 320

remaining at 16 h, 2 µM [13]: 90.3% | remaining at 16 h, 2 µM [9]: 0.5% | IC50 [2]: 0.75 nM
Structure (SMILES): COc1ncc(-c2cc(NC(=O)c3coc(CN4CCN(Cc5cccnc5)CC4)n3)c3cnn(C)c3n2)cc1NS(C)(=O)=O
Ratio IC50 [1]: 290

AUC [3]: 45.6 ng·h/mL | Cmax [4]: 19.9 ng/mL | Tmax [5]: 120 min | half-life [6]: 22 min | Vd [7]: 4.03 L/kg | clearance [8]: 170 mL/min/kg | remaining at 16 h, 2 µM [13]: 79.7% | remaining at 16 h, 2 µM [9]: 0.4% | IC50 [2]: 8.4 nM | IC50 [14]: 330 nM | bioavailability [10]: 16%
Structure (SMILES): COc1ncc(-c2cc(NC(=O)c3coc(CN4CCN(C(C)C)CC4)n3)c3cnn(C)c3n2)cc1NS(C)(=O)=O
Ratio IC50 [1]: 40

IC50 [2]: 4.5 nM
Structure (SMILES): COc1ncc(-c2cc(O[C@@H]3CCN(Cc4ccccc4)C3)c3cnn(C)c3n2)cc1NS(C)(=O)=O
Ratio IC50 [1]: 160

remaining at 16 h, 2 µM [13]: 92.3% | remaining at 16 h, 2 µM [9]: 17.6% | IC50 [2]: 3.3 nM
Structure (SMILES): COc1ncc(-c2cc(NC(=O)c3coc(CN4CCN(CCN5CCOCC5)CC4)n3)c3cnn(C)c3n2)cc1NS(C)(=O)=O
Ratio IC50 [1]: 250

IC50 [2]: 8.2 nM
Structure (SMILES): COc1ncc(-c2cc(O[C@@H]3CCN(Cc4cnn(C)c4)C3)c3cnn(C)c3n2)cc1NS(C)(=O)=O
Ratio IC50 [1]: 71
